Experimental findings from patent US8716309B2, “Pharmaceutical composition comprising pyridone derivatives” (priority 2011, dated 2014) are described below.

Broadly, the EC50 is the concentration at which the effect is half-maximal.

human α7 nAChR, sequence (P36544 23-502): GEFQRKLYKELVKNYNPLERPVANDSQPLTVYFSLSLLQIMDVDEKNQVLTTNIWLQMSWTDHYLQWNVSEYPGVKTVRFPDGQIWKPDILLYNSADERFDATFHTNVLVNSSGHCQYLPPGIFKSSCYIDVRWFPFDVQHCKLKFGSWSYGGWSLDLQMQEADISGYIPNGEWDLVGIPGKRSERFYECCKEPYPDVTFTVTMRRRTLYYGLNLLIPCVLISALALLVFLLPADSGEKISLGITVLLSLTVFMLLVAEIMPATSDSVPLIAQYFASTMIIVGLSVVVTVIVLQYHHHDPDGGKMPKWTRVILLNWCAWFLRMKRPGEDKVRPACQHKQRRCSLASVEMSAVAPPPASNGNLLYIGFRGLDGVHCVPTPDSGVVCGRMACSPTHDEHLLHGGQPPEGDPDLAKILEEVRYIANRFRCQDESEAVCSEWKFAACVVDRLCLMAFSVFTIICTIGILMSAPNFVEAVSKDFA

The experiment concerns the target human α7 nAChR (Homo sapiens, UniProt P36544). In words: cell-based. The following applies: EC50 of human α7nAChR(nM), HEK293T/17 cells transfected with human α7 nAChR; PNU-120596 added; relative to epibatidine 1 μM positive control.
As for `COc1ccccc1-n1cc(C(=O)NC2CN3CCC2CC3)ccc1=O` (centres unmarked) [Example 20, N-(1-azabicyclo[2.2.2]octan-3-yl)-1-(2-methoxyphenyl)-6-oxo-3-pyridinecarboxamide], the half-maximal effective concentration (EC50) was 500 to 1000 nM.

For the compound `O=C(NC1CN2CCC1CC2)c1ccc(=O)n(-c2ccc(C3CCCCC3)cc2)c1` (centres unmarked) [Example 18, N-(1-azabicyclo[2.2.2]octan-3-yl)-1-(4-cyclohexylphenyl)-6-oxo-3-pyridinecarboxamide], the EC50 is 500 to 1000 nM.

Turning to `O=C(NC1CN2CCC1CC2)c1ccc(=O)n(-c2ccccc2Sc2ccccc2)c1` (centres unmarked) [Example 95, N-(1-azabicyclo[2.2.2]octan-3-yl)-6-oxo-1-[2-(phenylthio)phenyl]-3-pyridinecarboxamide], the EC50 was less than 100 nM.

Compound `Cc1ccc(-n2cc(C(=O)NC3CN4CCC3CC4)ccc2=O)c(C)c1` (centres unmarked) [Example 32, N-(1-azabicyclo[2.2.2]octan-3-yl)-1-(2,4-dimethylphenyl)-6-oxo-3-pyridinecarboxamide] showed an EC50 greater than 1000 nM.

In turn, `O=C(NC1CN2CCC1CC2)c1ccc(=O)n(-c2ccc(Oc3ccc(Cl)cc3)cc2)c1` (centres unmarked) [Example 71, N-(1-azabicyclo[2.2.2]octan-3-yl)-1-[4-(4-chlorophenoxy)phenyl]-6-oxo-3-pyridinecarboxamide] came in with a concentration for a half-maximal effect (EC50) of 100 to 500 nM.

In turn, `CC(C)Sc1cc(Cl)ccc1-n1cc(C(=O)NC2CN3CCC2CC3)ccc1=O` (centres unmarked) [Example 93, N-(1-azabicyclo[2.2.2]octan-3-yl)-1-[4-chloro-2-(propan-2-ylthio)phenyl]-6-oxo-3-pyridinecarboxamide] registered an EC50 of 100 to 500 nM.

Regarding `CS(=O)(=O)c1ccc(-n2cc(C(=O)NC3CN4CCC3CC4)ccc2=O)cc1` (centres unmarked) [Example 101, N-(1-azabicyclo[2.2.2]octan-3-yl)-1-(4-methylsulfonylphenyl)-6-oxo-3-pyridinecarboxamide], the EC50 was in the range of 100 to 500 nM.

For the compound `COc1ccc(Cl)cc1-n1cc(C(=O)NC2CN3CCC2CC3)ccc1=O` (centres unmarked) [Example 56, N-(1-azabicyclo[2.2.2]octan-3-yl)-1-(5-chloro-2-methoxyphenyl)-6-oxo-3-pyridinecarboxamide], the EC50 fell in the range of 500 to 1000 nM.

Consider `Cc1ccc(Oc2ccc(-n3cc(C(=O)NC4CN5CCC4CC5)ccc3=O)cc2)cc1` (centres unmarked) [Example 72, N-(1-azabicyclo[2.2.2]octan-3-yl)-1-[4-(4-methylphenoxy)phenyl]-6-oxo-3-pyridinecarboxamide], for which the EC50 fell in the range of 100 to 500 nM.

Regarding `O=C(NC1CN2CCC1CC2)c1ccc(=O)n(-c2ccccc2-c2nc3ccccc3s2)c1` (centres unmarked) [Example 107, N-(1-azabicyclo[2.2.2]octan-3-yl)-1-[2-(1,3-benzothiazole-2-yl)phenyl]-6-oxo-3-pyridinecarboxamide], the EC50 was less than 100 nM.

`O=C(NC1CN2CCC1CC2)c1ccc(=O)n(-c2ccccc2Oc2ccccc2)c1` (centres unmarked) [Example 74, N-(1-azabicyclo[2.2.2]octan-3-yl)-6-oxo-1-(2-phenoxyphenyl)-3-pyridinecarboxamide]: the EC50 lay within 100 to 500 nM.

`O=C(NC1CN2CCC1CC2)c1ccc(=O)n(-c2ccc(-c3ccccc3)cc2Cl)c1` (centres unmarked) [Example 70, N-(1-azabicyclo[2.2.2]octan-3-yl)-1-(2-chloro-4-phenylphenyl)-6-oxo-3-pyridinecarboxamide] showed an EC50 of 100 to 500 nM.

For `Cc1ccc(-c2ccccc2-n2cc(C(=O)NC3CN4CCC3CC4)ccc2=O)s1` (centres unmarked) [Example 111, N-(1-azabicyclo[2.2.2]octan-3-yl)-1-[2-(5-methyl-2-thiophenyl)phenyl]-6-oxo-3-pyridinecarboxamide], the EC50 fell in the range of 100 to 500 nM.

With `CCSc1cc(OC)ccc1-n1cc(C(=O)NC2CN3CCC2CC3)ccc1=O` (centres unmarked) [Example 85, N-(1-azabicyclo[2.2.2]octan-3-yl)-1-[2-(ethylthio)-4-methoxyphenyl]-6-oxo-3-pyridinecarboxamide], the EC50 is less than 100 nM.

`Cc1ccc(-n2cc(C(=O)NC3CN4CCC3CC4)ccc2=O)c(Cl)c1` (centres unmarked) [Example 29, N-(1-azabicyclo[2.2.2]octan-3-yl)-1-(2-chloro-4-methylphenyl)-6-oxo-3-pyridinecarboxamide] had an EC50 greater than 1000 nM.

As to `O=C(NC1CN2CCC1CC2)c1ccc(=O)n(-c2ccc(Oc3ccccc3)cc2)c1` (centres unmarked) [Example 73, N-(1-azabicyclo[2.2.2]octan-3-yl)-6-oxo-1-(4-phenoxyphenyl)-3-pyridinecarboxamide], the EC50 was 500 to 1000 nM.

`CSc1ccccc1-n1cc(C(=O)N[C@H]2CN3CCC2CC3)ccc1=O` [Example 78, N-[(3R)-1-azabicyclo[2.2.2]octan-3-yl]-1-[2-(methylthio)phenyl]-6-oxo-3-pyridinecarboxamide] gave a 50% effective concentration (EC50) of less than 100 nM.

On to `CC(C)Sc1ccccc1-n1cc(C(=O)NC2CN3CCC2CC3)ccc1=O` (centres unmarked) [Example 81, N-(1-azabicyclo[2.2.2]octan-3-yl)-6-oxo-1-[2-(propan-2-ylthio)phenyl]-3-pyridinecarboxamide], for which the half-maximal effective concentration (EC50) lay in the range of 100 to 500 nM.

In the case of `Cc1ccc(-c2ccc(-n3cc(C(=O)NC4CN5CCC4CC5)ccc3=O)cc2)s1` (centres unmarked) [Example 108, N-(1-azabicyclo[2.2.2]octan-3-yl)-1-[4-(5-methyl-2-thiophenyl)phenyl]-6-oxo-3-pyridinecarboxamide], the EC50 fell in the range of 100 to 500 nM.

Compound `O=C(NC1CN2CCC1CC2)c1ccc(=O)n(-c2ccc(Cl)cc2F)c1` (centres unmarked) [Example 38, N-(1-azabicyclo[2.2.2]octan-3-yl)-1-(4-chloro-2-fluorophenyl)-6-oxo-3-pyridinecarboxamide] returned a concentration for a half-maximal effect (EC50) of 100 to 500 nM.

With `O=C(NC1CN2CCC1CC2)c1ccc(=O)n(-c2ccccc2-c2cccs2)c1` (centres unmarked) [Example 110, N-(1-azabicyclo[2.2.2]octan-3-yl)-6-oxo-1-(2-thiophene-2-ylphenyl)-3-pyridinecarboxamide], the EC50 is 100 to 500 nM.

`CSc1cc(Cl)ccc1-n1cc(C(=O)N[C@@H]2CN3CCC2CC3)ccc1=O` [Example 88, N-[(3S)-1-azabicyclo[2.2.2]octan-3-yl]-1-[4-chloro-2-(methylthio)phenyl]-6-oxo-3-pyridinecarboxamide] displayed a 50% effective concentration (EC50) of 100 to 500 nM.

Consider `O=C(NC1CN2CCC1CC2)c1ccc(=O)n(-c2ccccc2)c1` (centres unmarked) [Example 1, N-(1-azoniabicyclo[2.2.2]octan-3-yl)-6-oxo-1-phenyl-3-pyridinecarboxamide], for which the EC50 was greater than 1000 nM.

`O=C(NC1CN2CCC1CC2)c1ccc(=O)n(-c2ccc(OC(F)(F)F)cc2Cl)c1` (centres unmarked) [Example 57, N-(1-azabicyclo[2.2.2]octan-3-yl)-1-[2-chloro-4-(trifluoromethoxy)phenyl]-6-oxo-3-pyridinecarboxamide] displayed a 50% effective concentration (EC50) of 100 to 500 nM.

In the case of `CCc1ccc(-n2cc(C(=O)NC3CN4CCC3CC4)ccc2=O)cc1` (centres unmarked) [Example 14, N-(1-azabicyclo[2.2.2]octan-3-yl)-1-(4-ethylphenyl)-6-oxo-3-pyridinecarboxamide], the EC50 fell in the range of 500 to 1000 nM.

As to `O=C(NC1CN2CCC1CC2)c1ccc(=O)n(-c2cc(Cl)c(Cl)cc2Cl)c1` (centres unmarked) [Example 60, N-(1-azabicyclo[2.2.2]octan-3-yl)-1-(2,4,5-trichlorophenyl)-6-oxo-3-pyridinecarboxamide], the EC50 fell in the range of 500 to 1000 nM.

For `O=C(NC1CN2CCC1CC2)c1ccc(=O)n(-c2ccccc2Cl)c1` (centres unmarked) [Example 2, N-(1-azabicyclo[2.2.2]octan-3-yl)-1-(2-chlorophenyl)-6-oxo-3-pyridinecarboxamide], the EC50 is less than 100 nM.

`CCSc1ccccc1-n1cc(C(=O)NC2CN3CCC2CC3)ccc1=O` (centres unmarked) [Example 80, N-(1-azabicyclo[2.2.2]octan-3-yl)-1-[2-(ethylthio)phenyl]-6-oxo-3-pyridinecarboxamide] registered an EC50 of less than 100 nM.

`O=C(NC1CN2CCC1CC2)c1ccc(=O)n(-c2cccc(Cl)c2Cl)c1` (centres unmarked) [Example 46, N-(1-azabicyclo[2.2.2]octan-3-yl)-1-(2,3-dichlorophenyl)-6-oxo-3-pyridinecarboxamide] yielded a concentration for a half-maximal effect (EC50) of 100 to 500 nM.

With `CSc1ccccc1-n1cc(C(=O)N[C@@H]2CN3CCC2CC3)ccc1=O` [Example 79, N-[(3S)-1-azabicyclo[2.2.2]octan-3-yl]-1-[2-(methylthio)phenyl]-6-oxo-3-pyridinecarboxamide], the EC50 lay in the range of 100 to 500 nM.

Turning to `Cc1ccccc1-n1cc(C(=O)NC2CN3CCC2CC3)ccc1=O` (centres unmarked) [Example 11, N-(1-azabicyclo[2.2.2]octan-3-yl)-1-(2-methylphenyl)-6-oxo-3-pyridinecarboxamide], the concentration for a half-maximal effect (EC50) was greater than 1000 nM.

As for `CC(C)c1ccc(-n2cc(C(=O)NC3CN4CCC3CC4)ccc2=O)cc1` (centres unmarked) [Example 17, N-(1-azabicyclo[2.2.2]octan-3-yl)-6-oxo-1-(4-propan-2-ylphenyl)-3-pyridinecarboxamide], the EC50 was 500 to 1000 nM.

As for `Cc1ccc(-c2ccc(-n3cc(C(=O)NC4CN5CCC4CC5)ccc3=O)cc2)cc1` (centres unmarked) [Example 69, N-(1-azabicyclo[2.2.2]octan-3-yl)-1-[4-(4-methylphenyl)phenyl]-6-oxo-3-pyridinecarboxamide], the EC50 was 100 to 500 nM.

On to `O=C(NC1CN2CCC1CC2)c1ccc(=O)n(-c2ccc(-c3ccc(Cl)cc3)cc2)c1` (centres unmarked) [Example 67, N-(1-azabicyclo[2.2.2]octan-3-yl)-1-[4-(4-chlorophenyl)phenyl]-6-oxo-3-pyridinecarboxamide], for which the EC50 fell in the range of 500 to 1000 nM.

As for `O=C(N[C@@H]1CN2CCC1CC2)c1ccc(=O)n(-c2ccc(Cl)cc2)c1` [Example 6, N-[(3S)-1-azabicyclo[2.2.2]octan-3-yl]-1-(4-chlorophenyl)-6-oxopyridine-3-carboxamide], the concentration for a half-maximal effect (EC50) is greater than 1000 nM.

`CCSc1cc(Cl)ccc1-n1cc(C(=O)NC2CN3CCC2CC3)ccc1=O` (centres unmarked) [Example 97, N-(1-azabicyclo[2.2.2]octan-3-yl)-1-[4-chloro-2-(ethylthio)phenyl]-6-oxo-3-pyridinecarboxamide]: the concentration for a half-maximal effect (EC50) is less than 100 nM.

Take `CSc1ccc(C(F)(F)F)cc1-n1cc(C(=O)NC2CN3CCC2CC3)ccc1=O` (centres unmarked) [Example 83, N-(1-azabicyclo[2.2.2]octan-3-yl)-1-[2-(methylthio)-5-(trifluoromethyl)phenyl]-6-oxo-3-pyridinecarboxamide]: the EC50 lay in the range of 500 to 1000 nM.

As for `CSc1cc(C2CCCCC2)ccc1-n1cc(C(=O)NC2CN3CCC2CC3)ccc1=O` (centres unmarked) [Example 99, N-(1-azabicyclo[2.2.2]octan-3-yl)-1-[4-cyclohexyl-2-(methylthio)phenyl]-6-oxo-3-pyridinecarboxamide], the EC50 lay in the range of 100 to 500 nM.
